Columns and labels:
healthy participants = assay: Choice reaction time task (CRT); type: in vivo, human; details: for CRT Median Motor Time / CRT Median Recognition Time / CRT Median Total Time: mean (SD)
Excerpt: (§1) The choice reaction time (CRT; [31]) task was used to measure psychomotor speed. Outcome variables on the CRT were the median total reaction time, which can be broken down into the recognition time (time from stimulus onset to initiation of movement), and the motor reaction time (time from initiation of movement to stimulus termination).
Cognitive data: In this exploratory analysis, each outcome variable of the cognitive data was examined in a mixed model analysis of variance with one between-subjects factor of VU319 dose (0, 60, 120, 240, 400, 600 mg) and a within-subjects factor of testing session (pre-dose vs. post-dost administration). Post-hoc analysis compared each of the VU319 dose cohorts against the placebo group. Because the participants were healthy adults with normal cognitive function, we considered effects between no reductions in function to small improvement (d = 0.0–0.20) to be a positive result. For the food effect study, only the participants who received VU319 were examined due to the disproportionately small placebo group (n = 2). A within-subjects ANOVA including food condition (fasted/fed) and testing session (pre-dose vs. post-dose administration) was performed on each outcome variable.
as §1, with “(Hindmarch, 1984))” for “[31])”

animal models = tested on: animal models; parameters: method as in PMID 39660766; details: preclinical and IND-enabling studies; cited from earlier work
[1] = Food effect study 120 mg, Fasting, Post-Drug
[2] = Food effect study 120 mg, Fasting, Pre-Drug
[3] = Food effect study 120 mg, Fed, Post-Drug
[4] = Food effect study 120 mg, Fed, Pre-Drug

With Cn1cc2c(-c3cc(F)c(CN4Cc5ncccc5C4=O)c(F)c3)cccc2n1 [VU319] the “CRT Median Motor Time” value (healthy participants; [1]) was 299.2 (24.19) ms, the “CRT Median Recognition Time” value (healthy participants; [1]) was 370.55 (33.17) ms and the “CRT Median Total Time” value (healthy participants; [1]) was 679.55 (35.68) ms. The “CRT Median Motor Time” value (healthy participants; [2]) was 302 (40.02) ms, the “CRT Median Recognition Time” value (healthy participants; [2]) was 384.9 (53.58) ms and the “CRT Median Total Time” value (healthy participants; [2]) was 691.25 (64.17) ms. The “CRT Median Motor Time” value (healthy participants; [3]) was 297.25 (36.2) ms, the “CRT Median Recognition Time” value (healthy participants; [3]) was 369.4 (41.57) ms and the “CRT Median Total Time” value (healthy participants; [3]) was 673.65 (47.86) ms. For the same compound, the “CRT Median Motor Time” value (healthy participants; [4]) was 321.5 (36.67) ms, the “CRT Median Recognition Time” value (healthy participants; [4]) was 365.45 (41.27) ms and the “CRT Median Total Time” value (healthy participants; [4]) was 695.7 (47.32) ms. The “CRT Median Motor Time” value (healthy participants; SAD study, 60 mg, Post-Drug) was 330.42 (64.58) ms, the “CRT Median Recognition Time” value (healthy participants; SAD study, 60 mg, Post-Drug) was 394.92 (82.56) ms and the “CRT Median Total Time” value (healthy participants; SAD study, 60 mg, Post-Drug) was 734.25 (120.68) ms. The “CRT Median Motor Time” value (healthy participants; SAD study, 60 mg, Pre-Drug) was 331.08 (35.75) ms, the “CRT Median Recognition Time” value (healthy participants; SAD study, 60 mg, Pre-Drug) was 391.33 (59.93) ms and the “CRT Median Total Time” value (healthy participants; SAD study, 60 mg, Pre-Drug) was 735.08 (60.61) ms. The “CRT Median Motor Time” value (healthy participants; SAD study, 120 mg, Post-Drug) was 332.67 (89.6) ms, the “CRT Median Recognition Time” value (healthy participants; SAD study, 120 mg, Post-Drug) was 389 (43.6) ms and the “CRT Median Motor Time” value (healthy participants; SAD study, 120 mg, Pre-Drug) was 329.08 (80.22) ms. For the same compound, the “CRT Median Recognition Time” value (healthy participants; SAD study, 120 mg, Pre-Drug) was 384.92 (42.09) ms, the “CRT Median Total Time” value (healthy participants; SAD study, 120 mg, Pre-Drug) was 718.58 (103.36) ms and the “CRT Median Motor Time” value (healthy participants; SAD study, 240 mg, Post-Drug) was 353.25 (69.11) ms. The “CRT Median Recognition Time” value (healthy participants; SAD study, 240 mg, Post-Drug) was 399 (83.54) ms, the “CRT Median Total Time” value (healthy participants; SAD study, 240 mg, Post-Drug) was 759.42 (151.55) ms and the “CRT Median Motor Time” value (healthy participants; SAD study, 240 mg, Pre-Drug) was 374.58 (64.5) ms. For the same compound, the “CRT Median Recognition Time” value (healthy participants; SAD study, 240 mg, Pre-Drug) was 410.5 (68.61) ms, the “CRT Median Total Time” value (healthy participants; SAD study, 240 mg, Pre-Drug) was 800.92 (121.25) ms and the “CRT Median Motor Time” value (healthy participants; SAD study, 400 mg, Post-Drug) was 334.33 (33) ms. The “CRT Median Recognition Time” value (healthy participants; SAD study, 400 mg, Post-Drug) was 388.17 (40.47) ms, the “CRT Median Total Time” value (healthy participants; SAD study, 400 mg, Post-Drug) was 728.92 (57.1) ms and the “CRT Median Motor Time” value (healthy participants; SAD study, 400 mg, Pre-Drug) was 331 (38.55) ms. For the same compound, the “CRT Median Recognition Time” value (healthy participants; SAD study, 400 mg, Pre-Drug) was 396.67 (41.84) ms, the “CRT Median Total Time” value (healthy participants; SAD study, 400 mg, Pre-Drug) was 731 (55.14) ms and the “CRT Median Motor Time” value (healthy participants; SAD study, 600 mg, Post-Drug) was 282.33 (56.95) ms. For the same compound, the “CRT Median Recognition Time” value (healthy participants; SAD study, 600 mg, Post-Drug) was 362.67 (52.01) ms, the “CRT Median Total Time” value (healthy participants; SAD study, 600 mg, Post-Drug) was 649.58 (71.76) ms and the “CRT Median Motor Time” value (healthy participants; SAD study, 600 mg, Pre-Drug) was 291.42 (46.98) ms. The “CRT Median Recognition Time” value (healthy participants; SAD study, 600 mg, Pre-Drug) was 364.92 (18.0) ms, the “CRT Median Total Time” value (healthy participants; SAD study, 600 mg, Pre-Drug) was 662.17 (61.66) ms and the “CRT total, recognition and motor time, effect of dose” value (healthy participants; SAD study, all p > 0.1) was “no effect of dose, session, nor a dose by session interaction”. For the same compound, the “CRT recognition time, food condition by session interaction, effect size d” value (healthy participants; food effect study, 120 mg, p = 0.027, quicker recognition post-dose in fasted condition) was 1.76, the “SLUDGE effects in animal models” value (animal models) was “without producing SLUDGE effects” and the “cognition in animal models” value (animal models) was “effective at improving cognition”.

Source: publication PMC12211128, “Safety, tolerability, pharmacokinetic and pharmacodynamic effects of the muscarinic M1 positive allosteric modulator VU0467319 for Alzheimer’s disease: a single ascending-dose study in healthy participants” (Alzheimer's Research & Therapy, 2025)
